# Assay results taken from patent US8628788B2, “Formulations containing a non-oxidative biocide and a source of active halogen and use thereof in water treatment” (Bromine Compounds, Ltd., priority 2006, dated 2014).
# System: Pseudomonas aeruginosa (ATCC 15442)
# Test: Simulated biofilm (bacteria entrapped in alginate gel beads)
# Type: cell-based
# Conditions: 2.5 ppm DBNPA, 30 minutes contact time
# Text: The biofilm simulation was created by entrapping bacteria in alginate gel beads.
smiles,measurement,value
"N#CC(Br)(Br)C(N)=O [DBNPA, 2,2-Dibromo-3-nitrilopropionamide]",log reduction (as compared to control),3 log reduction
